Assay results: US20240391859A1, “ALDEHYDE COMPOSITION” (MITSUBISHI GAS CHEMICAL COMPANY, INC., priority 2021, published 2024)

Experiments:
[1] = Evaluation of threshold of smell; conditions: diluted with dipropylene glycol; lower limit concentration at which smell can be distinguished
Method: A filter paper having a width of 8 mm and a length of 15 cm was impregnated with each diluent and a lower limit concentration at which smell can be distinguished by a method in which a specialized panelist sniffs was evaluated. As the lower limit concentration is lower, the threshold of smell is lower, and the intensity and diffusibility of the aroma are more excellent.

[2] = tested on: Bhas42 cells; assay: Carcinogenicity prediction test (transformation test based on OECD GD231); format: cell-based; conditions: in vitro
Method: Using the aldehyde compositions obtained in Examples and Lilial (3-(p-tert-butylphenyl)-2-methylpropanal), a transformation test (an in vitro carcinogenicity prediction test using Bhas42 cells) was performed based on OECD GD231 to determine whether the carcinogenicity was negative or positive. When the result of this test is negative, it is predicted that there is no possibility of causing carcinogenicity, and safety is high.

## CC(C=O)Cc1ccc(C(C)(C)C)cc1 (centres unmarked) [Comparative Example 5, 3-(p-tert-butylphenyl)-2-methylpropanal]
[1]
  Threshold of smell: 1 ppm
[2]
  Carcinogenicity prediction test: Positive
